The test system of assay [1] is KRas-mediated phosphorylation of ERK in MKN1 cells. In words: Inhibition of KRas-mediated phosphorylation of ERK (Cisbio HTRF pERK), MKN1 cells. In kind it is cell-based. The note with it: Homo sapiens, MKN-1. The gist of the method: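 Day 1 seeding: 6,000 cells per well, RPMI/10% FBS, left overnight at 37° C. with 5% CO2. Plates then stood covered for 4 h at room temperature prior to HTRF detection of pERK.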
Background: TR-FRET usually uses a lanthanide donor and a delayed reading to cut background.

Assay [2] has as its system KRas-mediated phosphorylation of ERK in AsPC-1 cells. In words: Inhibition of KRas-mediated phosphorylation of ERK (Cisbio HTRF pERK), AsPC-1 cells. The assay is classed as cell-based. The settings on record: Homo sapiens, ASPC1, AsPC-1 cells; HTRF pERK. The method in brief:
(§1)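 Using 6,000 cells per well, compounds are applied for 3 hrs and cells then lysed at 4° C with shaking for 40 mins. Phospho-ERK is measured by HTRF after 2 hrs of lysate incubation with the d2/Cryptate antibody mixture.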

The target in the next assay is T1, KRas^G12S (Homo sapiens, UniProt P01116, G12S).
T1 construct: Biotinylated KRas (corresponding to amino acids 1-169, produced at Accelegan Inc.); biotin (biotinylated); purchased Accelegan Inc
T1 sequence (P01116 1-169 isoform P01116-2 G12S): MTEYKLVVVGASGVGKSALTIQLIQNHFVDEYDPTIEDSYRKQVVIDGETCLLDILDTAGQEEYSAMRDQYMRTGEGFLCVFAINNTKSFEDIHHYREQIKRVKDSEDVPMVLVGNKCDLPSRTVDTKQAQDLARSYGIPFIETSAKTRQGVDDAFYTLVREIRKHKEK
Briefly: KRas binding assay (TR-FRET tracer displacement), KRas G12S. The note with it: TR-FRET tracer displacement, KRas G12S.

A further assay addresses T2, KRas^G12D (Homo sapiens, UniProt P01116, G12D).
T2 construct: Biotinylated KRas (corresponding to amino acids 1-169, produced at Accelegan Inc.); biotin (biotinylated); purchased Accelegan Inc
Briefly: KRas binding assay (TR-FRET tracer displacement), KRas G12D.

A further assay deals with T3, KRas^G12C (Homo sapiens, UniProt P01116, G12C).
T3 construct: Biotinylated KRas (corresponding to amino acids 1-169, produced at Accelegan Inc.); biotin (biotinylated); purchased Accelegan Inc
T3 sequence (P01116 1-169 isoform P01116-2 G12C): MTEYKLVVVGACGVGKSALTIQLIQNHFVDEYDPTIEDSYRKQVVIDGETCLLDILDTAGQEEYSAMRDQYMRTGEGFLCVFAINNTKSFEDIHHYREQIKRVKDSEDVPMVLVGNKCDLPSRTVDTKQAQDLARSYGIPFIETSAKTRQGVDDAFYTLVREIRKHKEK
In words: KRas binding assay (TR-FRET tracer displacement), KRas G12C. The note with it: TR-FRET tracer displacement, KRas G12C.

In assay [3] the test system is KRas-mediated phosphorylation of ERK in H460 cells. In words: Inhibition of KRas-mediated phosphorylation of ERK (Cisbio HTRF pERK), H460 cells. The assay is classed as cell-based. The settings on record: Homo sapiens, NCI-H460, HTRF pERK. The method in brief:
as §1

The target of the next assay is T4, KRas^G12V (Homo sapiens, UniProt P01116, G12V).
T4 construct: Biotinylated KRas (corresponding to amino acids 1-169, produced at Accelegan Inc.); biotin (biotinylated); purchased Accelegan Inc
T4 sequence (P01116 1-169 isoform P01116-2 G12V): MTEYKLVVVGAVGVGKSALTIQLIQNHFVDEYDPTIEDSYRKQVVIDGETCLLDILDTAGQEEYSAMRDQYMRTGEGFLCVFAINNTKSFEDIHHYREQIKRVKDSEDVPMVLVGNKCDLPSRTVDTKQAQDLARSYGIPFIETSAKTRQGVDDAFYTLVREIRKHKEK
Briefly: KRas binding assay (TR-FRET tracer displacement), KRas G12V.

Assay [4] concerns KRas-mediated phosphorylation of ERK in H727 cells. Briefly: Inhibition of KRas-mediated phosphorylation of ERK (Cisbio HTRF pERK), H727 cells. The assay is classed as cell-based. The note with it: Homo sapiens, NCI-H727, H727 cells; HTRF pERK. The method in brief: as §1
Another assay deals with T5, KRas^WT (Homo sapiens, UniProt P01116).
T5 construct: Biotinylated KRas (corresponding to amino acids 1-169, produced at Accelegan Inc.); biotin (biotinylated); purchased Accelegan Inc
T5 sequence (P01116 1-169 isoform P01116-2): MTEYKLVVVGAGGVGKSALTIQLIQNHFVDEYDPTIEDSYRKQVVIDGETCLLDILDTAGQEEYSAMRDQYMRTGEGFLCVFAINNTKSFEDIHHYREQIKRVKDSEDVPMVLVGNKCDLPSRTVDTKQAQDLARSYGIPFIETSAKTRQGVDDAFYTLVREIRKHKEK
Briefly: KRas binding assay (TR-FRET tracer displacement), KRas WT. The settings on record: TR-FRET tracer displacement, KRas WT.

Assay [5] has as its system KRas-mediated phosphorylation of ERK in A549 cells. In words: Inhibition of KRas-mediated phosphorylation of ERK (Cisbio HTRF pERK), A549 cells. In kind it is cell-based. The settings on record: Homo sapiens, HTRF pERK. The gist of the method: (§2)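 Min control wells contained 0.2 uM Trametinib, while test compounds ran as 10 doses (3-fold, top 10 uM; 0.8% DMSO final) on cells for 3 hrs. After 40 mins lysis at 4° C, lysates were probed with HTRF antibodies for 2 hrs at room temperature.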

For assay [6], the system named is KRas-mediated phosphorylation of ERK in HCT116 cells. Briefly: Inhibition of KRas-mediated phosphorylation of ERK (Cisbio HTRF pERK), HCT116 cells. The settings on record: Homo sapiens, HCT-116, HTRF pERK. The assay is classed as cell-based. The method in brief:
as §2

Assay [7] deals with KRas-mediated phosphorylation of ERK in H358 cells. In words: Inhibition of KRas-mediated phosphorylation of ERK (Cisbio HTRF pERK), H358 cells. The note with it: Homo sapiens, NCI-H358, HTRF pERK. In kind it is cell-based. The gist of the method:
as §1

A value given as a limit tells only on which side of the number the result lay.

T2 sequence (P01116 1-169 isoform P01116-2 G12D): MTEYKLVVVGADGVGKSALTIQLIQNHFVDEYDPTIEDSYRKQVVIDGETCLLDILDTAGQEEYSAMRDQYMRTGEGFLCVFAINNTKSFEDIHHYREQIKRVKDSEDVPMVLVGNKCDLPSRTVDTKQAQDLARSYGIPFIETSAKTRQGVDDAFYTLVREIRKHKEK

Turning to `C=C1CN2CC(=C)CC2(COc2nc(N3C[C@@H]4C[C@H](C3)[C@H](O)C4)c3cnc(-c4cc(O)cc5ccc(F)c(CC)c45)c(F)c3n2)C1` [Example 796, (1R,5R,6R)-3-(2-((2,6-dimethylenetetrahydro-1H-pyrrolizin-7a(5H)-yl)methoxy)-7-(8-ethyl-7-fluoro-3-hydroxynaphthalen-1-yl)-8-fluoropyrido[4,3-d]pyrimidin-4-yl)-3-azabicyclo[3.2.1]octan-6-ol], the IC50 in [1] is 2 nM; in assay [2] it was 21 nM; on KRas^G12S, less than 2 nM; at KRas^G12D, less than 2 nM; at KRas^G12C, less than 2 nM; in assay [3], 8 nM. Moreover, the IC50 was less than 2 nM at KRas^G12V; 12 nM in assay [4]; less than 2 nM at KRas^WT; 7 nM in assay [5]; 37 nM in assay [6]; 5 nM in assay [7].

Turning to `C[C@@H]1C[C@@H]1c1c(Cl)cc(O)cc1-c1ncc2c(N3CCC[C@]4(C3)NC(=O)NC4=O)nc(OC[C@@]34CCCN3C[C@H](F)C4)nc2c1F` [Example 932, (R)-7-(7-(3-chloro-5-hydroxy-2-((1S,2R)-2-methylcyclopropyl)phenyl)-8-fluoro-2-(((2R,7aS)-2-fluorotetrahydro-1H-pyrrolizin-7a(5H)-yl)methoxy)pyrido[4,3-d]pyrimidin-4-yl)-1,3,7-triazaspiro[4.5]decane-2,4-dione], the IC50 in assay [1] is 3 nM; in assay [2] it was 139 nM; on KRas^G12S it was less than 2 nM; at KRas^G12D it was less than 2 nM; at KRas^G12C, less than 2 nM; in assay [3], 33 nM. Further, the IC50 on KRas^G12V was less than 2 nM; in [4], 225 nM; at KRas^WT, less than 2 nM; in assay [5], 69 nM; in assay [6], 130 nM; in assay [7], 23 nM.

On to `C[C@@H]1C[C@@H]1c1c(Cl)cc(O)cc1-c1ncc2c(N3CCCn4nc(C(=O)N(C)C)cc4C3)nc(OC[C@@]34CCCN3C[C@H](F)C4)nc2c1F` [Example 933, 5-(7-(3-chloro-5-hydroxy-2-((1S,2R)-2-methylcyclopropyl)phenyl)-8-fluoro-2-(((2R,7aS)-2-fluorotetrahydro-1H-pyrrolizin-7a(5H)-yl)methoxy)pyrido[4,3-d]pyrimidin-4-yl)-N,N-dimethyl-5,6,7,8-tetrahydro-4H-pyrazolo[1,5-a][1,4]diazepine-2-carboxamide], for which the IC50 in assay [1] is 11 nM; in [2], 29 nM; at KRas^G12S it was less than 2 nM; on KRas^G12D it was less than 2 nM; at KRas^G12C, less than 2 nM; in assay [3], 287 nM. Moreover, the IC50 at KRas^G12V was less than 2 nM; in assay [4], 70 nM; on KRas^WT, 4 nM; in assay [5], 202 nM; in assay [6], 526 nM; in [7] it was 18 nM.

For the molecule `C[C@@H]1C[C@@H]1c1c(Cl)cc(O)cc1-c1ncc2c(N3CCCn4nc(C(=O)N(C)C)cc4C3)nc(OCC34CCCN3C/C(=C\F)C4)nc2c1F` (stereo partly drawn) [Example 936, 5-(7-(3-chloro-5-hydroxy-2-((1S,2R)-2-methylcyclopropyl)phenyl)-8-fluoro-2-(((Z)-2-(fluoromethylene)tetrahydro-1H-pyrrolizin-7a(5H)-yl)methoxy)pyrido[4,3-d]pyrimidin-4-yl)-N,N-dimethyl-5,6,7,8-tetrahydro-4H-pyrazolo[1,5-a][1,4]diazepine-2-carboxamide], the half-maximal inhibitory concentration (IC50) in assay [1] is 2 nM; in [2], 17 nM; at KRas^G12S it was less than 2 nM; at KRas^G12D it was less than 2 nM; on KRas^G12C, 2 nM; in assay [3] it was 104 nM. In addition, the IC50 at KRas^G12V was less than 2 nM; in [4], 25 nM; on KRas^WT, 3 nM; in assay [5], 71 nM; in assay [6], 262 nM; in assay [7], 11 nM.

As to `C[C@@H]1C[C@@H]1c1c(Cl)cc(O)cc1-c1ncc2c(N3CCC[C@]4(C3)NC(=O)NC4=O)nc(OCC34CCCN3C/C(=C\F)C4)nc2c1F` (stereo partly drawn) [Example 937, (5R)-7-(7-(3-chloro-5-hydroxy-2-((1S,2R)-2-methylcyclopropyl)phenyl)-8-fluoro-2-(((Z)-2-(fluoromethylene)tetrahydro-1H-pyrrolizin-7a(5H)-yl)methoxy)pyrido[4,3-d]pyrimidin-4-yl)-1,3,7-triazaspiro[4.5]decane-2,4-dione], the IC50 in assay [1] is 1 nM; in assay [2], 116 nM; on KRas^G12S it was less than 2 nM; on KRas^G12D, less than 2 nM; at KRas^G12C it was less than 2 nM; in assay [3] it was 36 nM. The half-maximal inhibitory concentration (IC50) on KRas^G12V is less than 2 nM; in assay [4], 116 nM; at KRas^WT, less than 2 nM; in assay [5] it was 55 nM; in [6], 88 nM; in assay [7], 12 nM.

Turning to `C/C=C1/CN2CCCC2(COc2nc(N3C[C@@H]4C[C@H](C3)[C@H](O)C4)c3cnc(-c4cc(O)cc5ccc(F)c(CC)c45)c(F)c3n2)C1` (stereo partly drawn) [Example 939, (1R,5R,6R)-3-(7-(8-ethyl-7-fluoro-3-hydroxynaphthalen-1-yl)-2-(((E)-2-ethylidenetetrahydro-1H-pyrrolizin-7a(5H)-yl)methoxy)-8-fluoropyrido[4,3-d]pyrimidin-4-yl)-3-azabicyclo[3.2.1]octan-6-ol], the IC50 is 0.1 nM in assay [1]; 32 nM in assay [2]; less than 2 nM at KRas^G12S; less than 2 nM on KRas^G12D; less than 2 nM at KRas^G12C; 18 nM in [3]. The IC50 on KRas^G12V was less than 2 nM; in assay [4], 28 nM; at KRas^WT it was less than 2 nM; in assay [5] it was 11 nM; in assay [6], 27 nM; in [7], 5 nM.

For the molecule `C=C1CN2CCCC2(COc2nc(N3CCCC4(CNS(=O)(=O)N4)C3)c3cnc(-c4cc(O)cc5ccc(F)c(CC)c45)c(F)c3n2)C1` (stereo not drawn) [Example 940, 7-(7-(8-ethyl-7-fluoro-3-hydroxynaphthalen-1-yl)-8-fluoro-2-((2-methylenetetrahydro-1H-pyrrolizin-7a(5H)-yl)methoxy)pyrido[4,3-d]pyrimidin-4-yl)-2-thia-1,3,7-triazaspiro[4.5]decane 2,2-dioxide], the IC50 in [1] was 2 nM; in [2], 42 nM; at KRas^G12S, less than 2 nM; on KRas^G12D, less than 2 nM; on KRas^G12C it was less than 2 nM; in [3] it was 17 nM. Moreover, the IC50 at KRas^G12V is less than 2 nM; in assay [4], 72 nM; on KRas^WT, less than 2 nM; in [5], 33 nM; in assay [6], 43 nM; in [7] it was 10 nM.

Consider `CCc1c(F)ccc2cc(O)cc(-c3ncc4c(N5C[C@@H]6C[C@H](C5)[C@H](O)C6)nc(OC[C@@H]5CC[C@H]6COCCN65)nc4c3F)c12` [Example 945, (1R,5R,6R)-3-(7-(8-ethyl-7-fluoro-3-hydroxynaphthalen-1-yl)-8-fluoro-2-(((6S,8aS)-hexahydro-1H-pyrrolo[2,1-c][1,4]oxazin-6-yl)methoxy)pyrido[4,3-d]pyrimidin-4-yl)-3-azabicyclo[3.2.1]octan-6-ol], for which the IC50 in assay [1] is 0.2 nM; in assay [2], 79 nM; at KRas^G12S, less than 2 nM; at KRas^G12D, 6 nM; on KRas^G12C, 4 nM; in [3] it was 29 nM. Moreover, the IC50 came to 3 nM at KRas^G12V; 29 nM in assay [4]; 3 nM on KRas^WT; 46 nM in [5]; 40 nM in assay [6]; 12 nM in [7].

By IC50 is commonly meant the concentration needed to halve the response being measured. The low end stands for inhibition by little substance, the high end for a need for much substance.

Values taken from patent publication US20260015350A1, “AZAQUINAZOLINE PAN-KRAS INHIBITORS” (Mirati Therapeutics, Inc., priority 2022, published 2026).
